Columns and labels:
A2A adenosine receptor = molecular target: T1, A2A adenosine receptor (Homo sapiens, UniProt P29274); assay: cAMP assay for adenosine receptor (HTRF), HEK-A2A; format: cell-based; conditions: HEK-A2A cells, agonist 10 nM CGS-21680, Rolipram 20 μM, read-out: A2A Functional Ki
T1 construct: expressed in transfected cells; host or cells: HEK-293 (HEK-A2A)
Procedure: (§1) cAMP Assay for Adenosine Receptor.
(§2) The functional activity of test compounds on A2A and A2B adenosine receptors and selectivity over A1 adenosine was determined using HTRF based cAMP assay (Cisbio). Briefly, overnight seeded cultures (HEK-A1, HEK-A2A, HEK-A2B) were treated with 1U/ml ADA for 90 minutes at 37° C. and 5% CO2. Cell suspensions were treated with increasing concentrations of test compounds for 15 minutes followed by treatment with agonists for 15 minutes (1 nM CPA for HEK-A1 and 70 nM NECA for HEK-A2B) or 30 min (10 nM CGS-21680 for HEK-A2A) at room temperature with continuous mixing in incomplete DMEM supplemented with 1U/ml ADA. Rolipram (20 μM) was included in the assay for A1 and A2A adenosine receptors. For functional activity of HEK-A1, cell suspensions were further treated with forskolin for 30 minutes at room temperature with constant mixing. cAMP levels were quantified using a Flex Station III (Molecular Devices) at an excitation maximum of 313 nm and emission maxima of 620 nm and 665 nm. Data was analyzed using GraphPad Prism to generate IC50 and Ki. The biological activity data is provided in the Table below. <10 nM are represented as ++++, 10-30 nM as +++, 30-100 nM ++ and the K, value >100 nM as +.

A2B adenosine receptor = molecular target: T2, A2B adenosine receptor (Homo sapiens, UniProt P29275); assay: cAMP assay for adenosine receptor (HTRF), HEK-A2B; format: cell-based; conditions: HEK-A2B cells, agonist 70 nM NECA, read-out: A2B Functional Ki
T2 construct: expressed in transfected cells; host or cells: HEK-293 (HEK-A2B)
T2 sequence (P29275 1-332): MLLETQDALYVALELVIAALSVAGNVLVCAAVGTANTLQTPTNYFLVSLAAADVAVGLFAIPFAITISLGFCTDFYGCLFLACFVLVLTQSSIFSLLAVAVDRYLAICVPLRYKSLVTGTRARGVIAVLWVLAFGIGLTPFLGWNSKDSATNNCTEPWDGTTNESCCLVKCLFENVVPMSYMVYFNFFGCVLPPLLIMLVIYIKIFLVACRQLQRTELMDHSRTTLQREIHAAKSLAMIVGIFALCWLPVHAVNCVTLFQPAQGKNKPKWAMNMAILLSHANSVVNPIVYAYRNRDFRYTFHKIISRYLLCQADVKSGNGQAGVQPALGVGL
Procedure: as §1, §2

T1 sequence (P29274 whole entry): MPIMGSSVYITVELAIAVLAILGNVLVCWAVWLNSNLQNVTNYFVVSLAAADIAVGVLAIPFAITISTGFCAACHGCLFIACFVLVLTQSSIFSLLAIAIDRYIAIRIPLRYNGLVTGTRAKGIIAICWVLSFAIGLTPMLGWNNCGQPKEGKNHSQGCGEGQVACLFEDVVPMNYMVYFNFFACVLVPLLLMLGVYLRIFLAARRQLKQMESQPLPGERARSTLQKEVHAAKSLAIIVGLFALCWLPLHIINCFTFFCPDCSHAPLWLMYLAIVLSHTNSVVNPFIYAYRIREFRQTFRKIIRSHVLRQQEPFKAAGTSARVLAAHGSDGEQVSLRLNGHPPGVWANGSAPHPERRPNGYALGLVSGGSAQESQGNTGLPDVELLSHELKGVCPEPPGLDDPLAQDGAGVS

Compound	Ki (A2A adenosine receptor) [nM]	Ki (A2B adenosine receptor) [nM]
CCCn1c(=O)c2[nH]c(-c3cnn(C(C)CC)c3)nc2n2ccnc12 (stereo not shown) [Example B20, 5-propyl-2-(1-sec-butylpyrazol-4-yl)-3H-imidazo[2,1-b]purin-4-one]	< 10	< 10
CCCCn1cc(-c2nc3c([nH]2)c(=O)n(CCC)c2nccn32)cn1 [Example B9, 2-(1-butylpyrazol-4-yl)-5-propyl-3H-imidazo[2,1-b]purin-4-one]	10 to 30	< 10
CCCn1c(=O)c2[nH]c(-c3cnn(C(C)C)c3)nc2n2ccnc12 [Example B8, 2-(1-isopropylpyrazol-4-yl)-5-propyl-3H-imidazo[2,1-b]purin-4-one]	10 to 30	< 10
CCCn1c(=O)c2[nH]c(-c3cnn(CCN(C)C)c3)nc2n2ccnc12 [Example B12, 2-[1-(2-dimethylaminoethyl)pyrazol-4-yl]-5-propyl-3H-imidazo[2,1-b]purin-4-one]	> 100	10 to 30
CCCn1c(=O)c2[nH]c(-c3cnn(CCOC)c3)nc2n2ccnc12 [Example B11, 2-[1-(2-methoxyethyl)pyrazol-4-yl]-5-propyl-3H-imidazo[2,1-b]purin-4-one]	> 100	10 to 30
CCCn1cc(-c2nc3c([nH]2)c(=O)n(CCC)c2nccn32)cn1 [Example B13, 5-propyl-2-(1-propylpyrazol-4-yl)-3H-imidazo[2,1-b]purin-4-one]	< 10	< 10
CCCn1c(=O)c2[nH]c(-c3cnn(CCc4cccc(F)c4)c3)nc2n2ccnc12 [Example A5, 2-[1-[2-(3-fluorophenyl)ethyl]pyrazol-4-yl]-5-propyl-3H-imidazo[2,1-b]purin-4-one]	30 to 100	
CCCn1c(=O)c2[nH]c(-c3cnn(CC4CCC4)c3)nc2n2ccnc12 [Example B16, 2-[1-(cyclobutylmethyl)pyrazol-4-yl]-5-propyl-3H-imidazo[2,1-b]purin-4-one]	< 10	< 10
CCCn1c(=O)c2[nH]c(-c3cnn(Cc4cccc(C#N)c4)c3)nc2n2ccnc12 [Example B7, 3-[[4-(4-oxo-5-propyl-3H-imidazo[2,1-b]purin-2-yl)pyrazol-1-yl]methyl]benzonitrile]	< 10	< 10
CCCn1c(=O)c2[nH]c(-c3cnn(CC(C)(C)C)c3)nc2n2ccnc12 [Example B19, 2-[1-(2,2-dimethylpropyl)pyrazol-4-yl]-5-propyl-3H-imidazo[2,1-b]purin-4-one]	< 10	< 10
CCCn1c(=O)c2[nH]c(-c3cnn(C)c3)nc2n2ccnc12 [Example A6, 2-(1-methylpyrazol-4-yl)-5-propyl-3H-imidazo[2,1-b]purin-4-one]	> 100	
CCCn1c(=O)c2[nH]c(-c3cnn(CC)c3)nc2n2ccnc12 [Example B10, 2-(1-ethylpyrazol-4-yl)-5-propyl-3H-imidazo[2,1-b]purin-4-one]	10 to 30	< 10
CCCn1c(=O)c2[nH]c(-c3cnn(CC#Cc4cccc(OC(F)(F)F)c4)c3)nc2n2ccnc12 [Example B3, 5-propyl-2-[1-[3-[3-(trifluoromethoxy)phenyl]prop-2-ynyl]pyrazol-4-yl]-3H-imidazo[2,1-b]purin-4-one]	10 to 30	< 10
CCCn1c(=O)c2[nH]c(-c3cnn(CC(=O)N(C)C)c3)nc2n2ccnc12 [Example B14, N,N-dimethyl-2-[4-(4-oxo-5-propyl-3H-imidazo[2,1-b]purin-2-yl)pyrazol-1-yl]acetamide]	> 100	< 10
CCCn1c(=O)c2[nH]c(-c3cnn(CC#Cc4cccc(C(=O)OCC)c4)c3)nc2n2ccnc12 [Example B2, Ethyl 3-[3-[4-(4-oxo-5-propyl-3H-imidazo[2,1-b]purin-2-yl)pyrazol-1-yl]prop-1-ynyl]benzoate]	10 to 30	< 10
CCCn1c(=O)c2[nH]c(-c3cnn(CC(C)C)c3)nc2n2ccnc12 [Example B17, 2-(1-isobutylpyrazol-4-yl)-5-propyl-3H-imidazo[2,1-b]purin-4-one]	10 to 30	< 10
Cn1c(=O)c2[nH]c(-c3cnn(Cc4cccc(C(F)(F)F)c4)c3)nc2n2ccnc12 [Example A3, 5-methyl-2-[1-[[3-(trifluoromethyl)phenyl]methyl]pyrazol-4-yl]-3H-imidazo[2,1-b]purin-4-one]	10 to 30	< 10
CCCn1c(=O)c2[nH]c(-c3cnn(C(C)(C)CC)c3)nc2n2ccnc12 [Example A7, 2-[1-(1,1-dimethylpropyl)pyrazol-4-yl]-5-propyl-3H-imidazo[2,1-b]purin-4-one]	< 10	< 10
CCCn1c(=O)c2[nH]c(-c3cnn(Cc4cccc(C(F)(F)F)c4)c3)nc2n2ccnc12 [Example A1, 5-propyl-2-[1-[[3-(trifluoromethyl)phenyl]methyl]pyrazol-4-yl]-3H-imidazo[2,1-b]purin-4-one]	< 10	< 10
CCCn1c(=O)c2[nH]c(-c3cnn(CC#Cc4cc(C(=O)OCC)ccc4C)c3)nc2n2ccnc12 [Example B6, Ethyl 4-methyl-3-[3-[4-(4-oxo-5-propyl-3H-imidazo[2,1-b]purin-2-yl)pyrazol-1-yl]prop-1-ynyl]benzoate]	30 to 100	< 10

More lines, now with the values ahead:

Ki (A2A adenosine receptor) [nM]	Ki (A2B adenosine receptor) [nM]	Compound
30 to 100	< 10	CCCn1c(=O)c2[nH]c(-c3cnn(CCN4CCCCC4)c3)nc2n2ccnc12 [Example D1, 2-[1-[2-(1-piperidyl)ethyl]pyrazol-4-yl]-5-propyl-3H-imidazo[2,1-b]purin-4-one]
< 10	< 10	CCCn1c(=O)c2[nH]c(-c3cnn(Cc4cccc(CO)c4)c3)nc2n2ccnc12 [Example E1, 2-[1-[[3-(hydroxymethyl)phenyl]methyl]pyrazol-4-yl]-5-propyl-3H-imidazo[2,1-b]purin-4-one]
30 to 100	< 10	CCCn1c(=O)c2[nH]c(-c3cnn(CC4CC(=O)N(c5cncc(C(F)(F)F)c5)C4)c3)nc2n2ccnc12 (stereo not shown) [Example C2, 2-[1-[[5-oxo-1-[5-(trifluoromethyl)-3-pyridyl]pyrrolidin-3-yl]methyl]pyrazol-4-yl]-5-propyl-3H-imidazo[2,1-b]purin-4-one]
10 to 30	< 10	CCCn1c(=O)c2[nH]c(-c3cnn(Cc4cccc(C(C)(C)O)c4)c3)nc2n2ccnc12 [Example F1, 2-[1-[[3-(1-hydroxy-1-methyl-ethyl)phenyl]methyl]pyrazol-4-yl]-5-propyl-3H-imidazo[2,1-b]purin-4-one]
10 to 30	< 10	CCCn1c(=O)c2[nH]c(-c3cnn(Cc4cccc(C(=O)O)c4)c3)nc2n2ccnc12 [Example G1, 3-[[4-(4-oxo-5-propyl-3H-imidazo[2,1-b]purin-2-yl)pyrazol-1-yl]methyl]benzoic Acid]
> 100	30 to 100	CCCn1c(=O)c2[nH]c(-c3cnn(CC(=O)O)c3)nc2n2ccnc12 [Example H1, 2-[4-(4-oxo-5-propyl-3H-imidazo[2,1-b]purin-2-yl)pyrazol-1-yl]acetic acid]
30 to 100	30 to 100	CCCn1c(=O)c2[nH]c(-c3cnn(CC(O)CO)c3)nc2n2ccnc12 (stereo not shown) [Example J1, 2-[1-(2,3-dihydroxypropyl)pyrazol-4-yl]-5-propyl-3H-imidazo[2,1-b]purin-4-one]

— patent publication US11981679B2, “Tricyclic compounds, compositions and medicinal applications thereof” (IMPETIS BIOSCIENCES LTD., priority 2018, dated 2024)
